Results: article PMC7369900 (International Journal of Molecular Sciences, 2020)
Converted amounts (≈) assume the structure as drawn. Like-named read-outs stand apart in the source and are kept apart here.

Assays:
C. albicans Gu4 [1] = test: microbe, parasite or virus in culture; conditions: Candida albicans
[2] = test system: C. albicans Δopt1Δopt5Δptr2Δptr22; test: microbe, parasite or virus in culture; conditions: Candida albicans
C. albicans Gu5 = test: microbe, parasite or virus in culture; conditions: Candida albicans
C. glabrata DSM 11226 [3] = test: microbe, parasite or virus in culture; conditions: Nakaseomyces glabratus, DSM11226
C. albicans SC 5314 [4] = test: microbe, parasite or virus in culture; conditions: Candida albicans, SC5314
C. krusei DSM 6128 [5] = test: microbe, parasite or virus in culture; conditions: Pichia kudriavzevii, DSM6128
bacteria = test: Influence of salts: antibacterial activity in MHB2 compared to MHB; assay type: cell-based; conditions: MHB2: Ca(II) 20–25 mg/L, Mg(II) 10–12.5 mg/L
Description: Additionally, for selected compounds, the aspect of the influence of salts present in the medium on antimicrobial activity was evaluated. […] In the salt-enriched medium, the MIC values determined for TP10-NH2 were up to 40-fold higher than those found in MHB. The phenomenon of reduction of the growth inhibitory activity of antimicrobial peptides at a high salt concentration was previously evidenced by other researchers. It may cause severe limitations for AMPs’ usage as therapeutic agents because of the risk of potential inactivation by salts present in the human body.

[6] = test system: yeasts of the Candida genus
E. coli ATCC 25922 = test: microbe, parasite or virus in culture; assay type: cell-based, Escherichia coli; conditions: E. coli ATCC 25922, MHB
In short: (§1)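 MIC and MBC were determined by serial two-fold broth microdilution in Mueller Hinton broth per CLSI M07-A10, in triplicate. MIC90 and MIC50 are the concentrations giving 90% or 50% growth reduction versus drug-free control.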

C. albicans Gu4 [7] = test system: C. albicans Gu4
LLC-PK1 = test: cells; assay type: cell-based, pig; conditions: LLC-PK1, 72 h, MTT
In short: (§2)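 MTT assay after 72 h compound exposure at 37 °C; LLC-PK1 in Medium 199 + 7.5% FBS, Hep G2 in MEM Eagle + 10% FBS, HEK 293 in DMEM + 10% FBS (10% CO2 for HEK 293, otherwise 5%). MTT 3 h, formazan in DMSO, A540; cytotoxicity relative to drug-free control, triplicates.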

human red blood cells = test: Hemolysis assay; conditions: 1 h, 37 °C
[8] = biological target: T1, yeast DNA topoisomerase II (Saccharomyces cerevisiae, UniProt P06786); test: biochemical; assay type: biochemical; conditions: pBR322 relaxation, 30 °C, 30 min
T1 construct: purchased Inspiralis (Norwich, UK)
T1 sequence (P06786 whole entry): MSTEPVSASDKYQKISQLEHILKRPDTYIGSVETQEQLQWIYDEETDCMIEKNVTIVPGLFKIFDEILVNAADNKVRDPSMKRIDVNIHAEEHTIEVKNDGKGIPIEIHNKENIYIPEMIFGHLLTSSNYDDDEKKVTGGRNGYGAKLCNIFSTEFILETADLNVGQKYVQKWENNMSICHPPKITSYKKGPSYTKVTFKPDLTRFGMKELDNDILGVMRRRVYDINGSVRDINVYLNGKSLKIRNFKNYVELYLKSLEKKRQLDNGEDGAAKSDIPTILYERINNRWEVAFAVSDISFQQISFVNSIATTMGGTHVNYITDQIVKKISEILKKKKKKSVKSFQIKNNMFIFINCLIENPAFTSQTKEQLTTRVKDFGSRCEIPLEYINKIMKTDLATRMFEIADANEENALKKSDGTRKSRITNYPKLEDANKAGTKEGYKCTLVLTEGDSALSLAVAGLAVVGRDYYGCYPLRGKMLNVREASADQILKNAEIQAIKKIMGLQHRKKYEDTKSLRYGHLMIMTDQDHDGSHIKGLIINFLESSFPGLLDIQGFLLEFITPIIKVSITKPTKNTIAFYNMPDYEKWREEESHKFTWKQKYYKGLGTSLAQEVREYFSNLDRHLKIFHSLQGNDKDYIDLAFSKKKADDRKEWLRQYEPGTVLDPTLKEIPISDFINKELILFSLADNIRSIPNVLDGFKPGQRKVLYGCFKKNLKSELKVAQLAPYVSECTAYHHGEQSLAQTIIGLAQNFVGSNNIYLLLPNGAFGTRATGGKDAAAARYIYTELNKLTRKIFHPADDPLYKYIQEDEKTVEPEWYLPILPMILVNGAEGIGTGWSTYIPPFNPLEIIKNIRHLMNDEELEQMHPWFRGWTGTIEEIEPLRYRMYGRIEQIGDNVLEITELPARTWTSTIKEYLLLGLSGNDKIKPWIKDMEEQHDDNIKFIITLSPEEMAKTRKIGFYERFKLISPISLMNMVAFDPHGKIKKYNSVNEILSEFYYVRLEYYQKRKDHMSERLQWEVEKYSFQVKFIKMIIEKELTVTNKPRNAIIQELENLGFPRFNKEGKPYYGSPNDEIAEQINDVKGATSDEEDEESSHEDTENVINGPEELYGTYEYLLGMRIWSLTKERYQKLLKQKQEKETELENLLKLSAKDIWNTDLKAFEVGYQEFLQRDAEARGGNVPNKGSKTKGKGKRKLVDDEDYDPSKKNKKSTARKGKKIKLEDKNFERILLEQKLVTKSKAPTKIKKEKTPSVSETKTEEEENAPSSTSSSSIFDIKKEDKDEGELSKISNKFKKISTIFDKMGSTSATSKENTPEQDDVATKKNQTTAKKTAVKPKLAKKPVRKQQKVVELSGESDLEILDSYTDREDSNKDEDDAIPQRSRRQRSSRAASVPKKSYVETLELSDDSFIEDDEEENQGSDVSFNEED

C. glabrata DSM 11226 [9] = test system: C. glabrata DSM 11226
[10] = test system: S. aureus ATCC 25,923 cells; test: Stability inside bacterial cells (LC-MS of cell lysate)
HEK 293 [11] = test: cells; assay type: cell-based, human; conditions: HEK 293, 72 h, MTT
In short: as §2

Hep G2 = test: cells; assay type: cell-based, human; conditions: Hep G2, 72 h, MTT
In short: as §2

P. aeruginosa ATCC 27853 = test: microbe, parasite or virus in culture; assay type: cell-based, Pseudomonas aeruginosa
In short: as §1

C. krusei DSM 6128 [12] = test system: C. krusei DSM 6128
[13] = test system: S. epidermidis ATCC 12228; test: microbe, parasite or virus in culture; assay type: cell-based, Staphylococcus epidermidis; conditions: S. epidermidis ATCC 12228, MHB
In short: as §1

[14] = test system: Staphylococcus aureus ATCC 25,923; parameters: method as in PMID 25891396; conditions: cited from earlier work
C. albicans SC 5314 [15] = test system: C. albicans SC 5314
[16] = test system: C. albicans Δopt1Δopt5Δptr2Δptr22
S. aureus ATCC 29213 = test: microbe, parasite or virus in culture; assay type: cell-based, Staphylococcus aureus; conditions: S. aureus ATCC 29213, MHB
In short: as §1

HEK 293 [17] = test: ROS generation (CM-H2DCFDA, flow cytometry); assay type: cell-based, human; conditions: positive cells in 24 h, class
In short: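 Cells were seeded 24 h in DMEM, then incubated 0.5, 2.5, 5.5 or 24 h at 37 °C, with 250 µM H2O2 as positive control. CM-H2DCFDA was added for a further 0.5 h, with 7-AAD (0.8 µg/mL) co-staining before flow cytometry. The read-out was the fraction of ROS-positive cells, in triplicate.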

HL-60 = test: ROS generation (CM-H2DCFDA, flow cytometry); assay type: cell-based, human; conditions: positive cells in 24 h, class
E. coli ATCC 25,922 = test system: E. coli ATCC 25,922; parameters: method as in PMID 25891396; conditions: cited from earlier work

Molecule `OC(Cn1cncn1)(Cn1cncn1)c1ccc(F)cc1F` [FLU, Fluconazole] has an MIC50 (C. albicans Gu4 [1]) of 50 µM (≈ 15.3 µg/mL), an MIC50 [2] of 50 µM (≈ 15.3 µg/mL) and an MIC90 [2] of 100 µM (≈ 30.6 µg/mL). The MIC50 (C. albicans Gu5) was > 200 µM, the MIC50 (C. glabrata DSM 11226 [3]) was 100 µM (≈ 30.6 µg/mL) and the MIC50 (C. albicans SC 5314 [4]) was 50 µM (≈ 15.3 µg/mL). For the same molecule, the MIC90 (C. albicans SC 5314 [4]) was 100 µM (≈ 30.6 µg/mL) and the MIC50 (C. krusei DSM 6128 [5]) was 50 µM (≈ 15.3 µg/mL).

For `CC[C@H](C)[C@H](NC(=O)[C@H](CCCCN)NC(=O)[C@H](CCCCN)NC(=O)[C@H](C)NC(=O)[C@H](CC(C)C)NC(=O)[C@H](C)NC(=O)[C@H](C)NC(=O)[C@H](CC(C)C)NC(=O)[C@H](C)NC(=O)[C@H](CCCCN)NC(=O)[C@H](CC(C)C)NC(=O)[C@H](CC(N)=O)NC(=O)[C@@H](NC(=O)[C@H](CCCCN)NC(=O)CNC(=O)[C@H](CC(C)C)NC(=O)[C@H](CC(C)C)NC(=O)[C@H](Cc1ccc(O)cc1)NC(=O)CNC(=O)[C@H](C)N)[C@@H](C)CC)C(=O)N[C@@H](CC(C)C)C(N)=O` [TP10-NH2, transportan 10, reference compound], the “Influence of salts (MHB2 vs MHB) on antibacterial activity” value (bacteria) was “strongly affected”, the “MIC in salt-enriched medium (MHB2) relative to MHB” value (bacteria) was “up to 40 fold” and the “MIC against C. albicans” value [6] was 100 µM (≈ 218 µg/mL). The MIC50 (E. coli ATCC 25922) was 1.6 µM (≈ 3.49 µg/mL), the MIC90 (E. coli ATCC 25922) was 1.6 µM (≈ 3.49 µg/mL) and the MIC50 (C. albicans Gu4 [7]) was 100 µM (≈ 218 µg/mL). For the same molecule, the IC50 (LLC-PK1) was 22.7 ± 5.65 µM, the “MHC50 (concentration causing 50% hemolysis)” value (human red blood cells) was ~200 µg/mL and the “MHC50 (concentration causing 50% hemolysis)” value (human red blood cells; converted from μg/mL) was ~ 92 μM. For the same molecule, the “Concentration of complete inhibition of topoisomerase II activity” value [8] was 50 µM, the MIC50 (C. glabrata DSM 11226 [9]) was >200 µM and the “Stability inside bacterial cells” value [10] was “resistant inside the bacterial cells”. The IC50 (HEK 293 [11]) was 25.1 ± 0.86 µM, the IC50 (Hep G2) was 32.1 ± 1.65 µM and the MIC50 (P. aeruginosa ATCC 27853; P. aeruginosa ATCC 27853, MHB) was >100 µM. The MIC90 (P. aeruginosa ATCC 27853; P. aeruginosa ATCC 27853, MHB) was >100 µM, the MIC (P. aeruginosa ATCC 27853; Pseudomonas aeruginosa, MHB) was > 100 µM and the MIC50 (C. krusei DSM 6128 [12]) was >200 µM. The MIC50 [13] was 1.6 µM (≈ 3.49 µg/mL), the MIC90 [13] was 1.6 µM (≈ 3.49 µg/mL) and the MIC ([14]; Staphylococcus aureus ATCC 25,923, converted from μg/mL) was ~ 7 μM. For the same molecule, the MIC ([14]; Staphylococcus aureus ATCC 25,923) was 16 µg/mL (≈ 7.33 µM), the MIC50 (C. albicans SC 5314 [15]) was 100 µM (≈ 218 µg/mL) and the MIC90 (C. albicans SC 5314 [15]) was 100 µM (≈ 218 µg/mL). It also gave an MIC50 [16] of 100 µM (≈ 218 µg/mL), an MIC90 [16] of 100 µM (≈ 218 µg/mL) and an MIC50 (S. aureus ATCC 29213) of 3.125 µM (≈ 6.82 µg/mL). For the same molecule, the MIC90 (S. aureus ATCC 29213) was 3.125 µM (≈ 6.82 µg/mL), the “ROS HEK 293” value (HEK 293 [17]) was “++ (++ <10% positive cells in 24 h)” and the “ROS HL-60” value (HL-60) was “++ (++ <10% positive cells in 24 h)”. The MIC (E. coli ATCC 25,922; E. coli ATCC 25,922, converted from μg/mL) was ~ 7 μM and the MIC (E. coli ATCC 25,922; E. coli ATCC 25,922) was 16 µg/mL (≈ 7.33 µM).
